Assay [1] concerns epithelial cells of the oral mucosa (TR146). Briefly: TEER of TR146 monolayer after overnight incubation and 0.005% SDS stress (FIG. 3). In kind it is cell-based, human. Particulars: then 0.005% SDS. The method, then:
(§1) A defined strength (U) of a direct current (DC) is applied between two electrodes E1 and E2 for determination of TEER, wherein the single-layered cell layer (monolayer) is arranged between the two electrodes (FIG. 1), such that the applied direct current (DC) flows through the cells. The measurement of TEER is made by an epithelial voltmeter (EVOM2). The resulting current I is measured according to the ohmic resistance R, wherein R=U/I (Benson K, Cramer S, Galla H J (2013) Impedance-based cell monitoring: Barrier properties and beyond. FluidsBarriers, 10:5.). […]
(§2) The intact epithelial monolayer was respectively controlled by a TEER measurement. If no increase were measured in the TEER over two days, the epithelial cells have formed an intact epithelial monolayer having intact epithelial barrier (selective permeability barrier).
In order to subsequently measure the effect of ectoine on membrane stability under the influence of chemicals, an intact epithelial monolayer of epithelial cells of the oral mucosa (TR146) were incubated in cell culture medium with PBS (control), with 50 mM ectoine and with 0.1% lecithin (positive control) over night. Subsequently, stress treatment was made with 0.005% SDS and change of the transepithelial electric resistance [Ohm] was monitored hourly (FIG. 3).

The test system of assay [2] is human nasal mucosa epithelial cells (RPMI-2650). Briefly: Allergy prevention assay (APA), OVA penetration, RPMI-2650 monolayer. In kind it is cell-based. The source says:
(§3) The cell culture vessel (6) comprises an inner (7) and an outer (5) reservoir, wherein the two compartment are partitioned by a transparent ThinCerts membrane (5) having a pore size of 0.4 μm. This pore size allows for cytokine and protein movement between the outer and inner reservoir (FIG. 6.) Eukaryotic cells may not pass through this membrane thus forming a single-layered closed cell layer which covers the whole membrane. In doing so, an arrangement is achieved by the experimental setup which reflects the apical side (outer reservoir) and basolateral side (inner reservoir within the inset) of epithelial cells. However, allergens, such as e.g. ovalbumin (OVA), may pass the membrane without problems due to their low molecule size.
(§4) If a closed epithelial cell layer is present, OVA may only pass this membrane barrier through “gaps”, tight junction or transcytosis from the apical to the basolateral side. […]
(§5) The cells of the respective cell line (see Table 3) were cultivated on a membrane (3) (FIG. 6) until formation of a closed single-layered cell layer (2) (synonymously epithelial monolayer). […] Subsequently, the OVA content was measured in the inner and outer reservoir by means of OVA-specific ELISA and the relative penetration of the epithelial monolayer with OVA in pretreated and non-treated cells was determined.

Assay [3] relates to epithelial cells of the oral mucosa (TR146). As to the kind of experiment: Allergy prevention assay (APA), OVA penetration, TR146 monolayer. The class given is cell-based, human. Particulars: TR146, OVA + 100 mM ectoine.
From the text: as §3, §4, §5

Assay [4] deals with human keratinocytes (HaCaT). As to the kind of experiment: TEER of HaCaT monolayer after overnight incubation and air drying (FIG. 5). In kind it is cell-based. Particulars: preincubation with ectoine (50/100 mM), air drying 5 min at RT, rehydration, 24 h with OVA. The procedure: as §1, §2
In a further experiment, an intact epithelial monolayer of human keratinocytes (HaCaT) was also incubated in cell culture medium with PBS (control), with 50 mM ectoine and with 100 mM ectoine over night. […] After air drying at RT under sterile conditions, the cells were overlaid with medium including OVA allergen (250 μg/ml) and incubated at 37° C. in the incubator for 24 hours and subsequently the TEER value was measured.

In assay [5] the test system is epithelial cells of oral mucosa (TR146). As to the kind of experiment: TEER of TR146 monolayer after 12 h incubation, no stress (FIG. 2). In kind it is cell-based, human. The procedure: A defined strength (U) of a direct current (DC) is applied between two electrodes E1 and E2 for determination of TEER, wherein the single-layered cell layer (monolayer) is arranged between the two electrodes (FIG. 1), such that the applied direct current (DC) flows through the cells. The measurement of TEER is made by an epithelial voltmeter (EVOM2). The resulting current I is measured according to the ohmic resistance R, wherein R=U/I (Benson K, Cramer S, Galla H J (2013) Impedance-based cell monitoring: Barrier properties and beyond. FluidsBarriers, 10:5.).
For this purpose, in in vitro experiments, epithelial tissues were sown on special cell culture carrier having a membrane (ThinCerts, pore size 0.4 μm) and cultured to a closed, single-layered cell layer (synonymously epithelial monolayer) on the membrane (FIG. 1).
as §2
In order to measure effects of ectoine on barrier function, in particular membrane integrity, TR146 cells of an intact epithelial monolayer were incubated in cell culture medium with PBS (control), with 50 mM ectoine and with 0.1% lecithin (positive control) for 12 hours (h).

For assay [6], the system named is human keratinocytes (HaCaT). Briefly: Allergy prevention assay (APA), OVA penetration, HaCaT monolayer. The conditions noted are these: OVA + 10 mM ectoine. In kind it is cell-based.
From the text: as §3, §4, §5

In assay [7] the test system is rat bronchial epithelial cells (RLE). As to the kind of experiment: Allergy prevention assay (APA), OVA penetration, RLE monolayer. In kind it is cell-based.
From the text: as §3, §4, §5

For assay [8], the system named is rabbit corneal epithelial cells (SIRC). Briefly: Allergy prevention assay (APA), OVA penetration, SIRC monolayer. The class given is cell-based.
From the text: as §3
If a closed epithelial cell layer is present, OVA may only pass this membrane barrier through “gaps”, tight junction or transcytosis from the apical to the basolateral side. (Ding L, Zhang Y, Jiang Y, Wang L, Liu B, Liu J (2014) Transport of egg white ACE-Inhibitory peptide, Gln-Ile-Gly-Leu-Phe, in human intestinal Caco-2 cell monolayers with cytoprotective effect. J Agric Food Chem (Epub ahead of print)).
The cells of the respective cell line (see Table 3) were cultivated on a membrane (3) (FIG. 6) until formation of a closed single-layered cell layer (2) (synonymously epithelial monolayer). Subsequently, the epithelial monolayer was pretreated with ectoine (10, 50, 100 mM) in cell culture medium for 6 hours. After pretreatment with ectoine, the epithelia monolayer was incubated with 250 μg/ml of the allergen OVA (FIG. 6) over night. Subsequently, the OVA content was measured in the inner and outer reservoir by means of OVA-specific ELISA and the relative penetration of the epithelial monolayer with OVA in pretreated and non-treated cells was determined.

Assay [9] relates to HaCaT (drying stress). As to the kind of experiment: Allergy prevention assay (APA) with drying stress, HaCaT monolayer. The class given is cell-based, human.
From the text: as §3, §4
The cells of the respective cell line (see Table 3) were cultivated on a membrane (3) (FIG. 6) until formation of a closed single-layered cell layer (2) (synonymously epithelial monolayer). […] Subsequently, the OVA content was measured in the inner and outer reservoir by means of OVA-specific ELISA and the relative penetration of the epithelial monolayer with OVA in pretreated and non-treated cells was determined. […]

The subject of assay [10] is Claudin-1. As to the kind of experiment: Claudin-1 expression in HaCaT monolayer after heat stress (ELISA). The class given is cell-based, human. The method, then: The HaCaT cell line was cultured in a plastic cell culture vessel until a closed single-layered cell layer (HaCaT monolayer) was formed. Subsequently, the monolayer was pretreated with 50 mM or 100 mM ectoine in cell culture medium for 6 hours (h). After pretreatment, temperature treatment of the cells was made at 44° C. for 30 min. After heat stress, the monolayer was again incubated in the incubator at 37° C. for 24 hours. Subsequently, the HaCaT monolayer was harvested and, after lysis by means of cryoshock (freezing, unfreezing and scraping with spatula), the lysate was analysed for Claudin-1 by means of ELISA.

Assay [11] deals with porcine renal epithelial cells (LLC-PK1). As to the kind of experiment: TEER of LLC-PK1 monolayer after overnight incubation and BAK stress (FIG. 4). Particulars: LLC-PK1, 50 mM ectoine over night, then BAK stress. The class given is cell-based. The method, then: as §1, §2
Additionally, an intact epithelial monolayer of porcine renal epithelial cells (LLC-PK1) was also incubated in cell culture medium with PBS (control), with 50 mM ectoine and with 0.1% lecithin (positive control) over night. Subsequently, stress treatment was made with 0.001% BAK and change of the transepithelial electric resistance [Ohm] was monitored hourly (FIG. 4).

“And” between values parts separate entries of the source, which are not always exact repeats. Equal values may be shown once.

As for `CC1=NC(C(=O)O)CCN1` (stereo not shown) [ectoine, 1,4,5,6-tetrahydro-2-methyl-4-pyrimidine carboxylic acid], the TEER in [1] (TR146, 50 mM ectoine over night) is given as 215 Ohm; in assay [4] it was “approx. 180 Ohm”. The “Penetrations protection (as compared to PBS) [%] +/− SD” value in [2] (OVA + 10 mM ectoine) is reported as 23.5 +/− 17.1%; in assay [2] (OVA + 100 mM ectoine), “up to 50%”; in [3], 13.44 +/− 7.69%; in [6], −0.61 +/− 0.1%; in [7] (OVA + 50 mM ectoine) it was −6.3 +/−7.91^ %; in assay [7] (OVA + 100 mM ectoine), −124.5 +/− 3.72%. Also, the “Penetrations protection (as compared to PBS) [%] +/− SD” value is 0 +/− 11.52% in assay [8] (OVA + 10 mM ectoine); 16.3 +/− 2.31% in assay [8] (OVA + 50 mM ectoine); “up to 50%” in assay [8] (OVA + 100 mM ectoine); 12% and 8.1 +/− 8.01% in assay [9] (OVA + 50 mM ectoine); 11.6 +/− 6.25% in assay [9] (OVA + 100 mM ectoine). For the same compound, the TEER value in [5] (TR146, 50 mM ectoine) stood at 215 Ohm. Moreover, in assay [10] (100 mM ectoine, 24 hours), the “Claudin-1 expression, factor over medium and PBS without ectoine” value is given as 3. Besides, in [10] (Ectoine 100 mM 6 h, 44° C. 30 min, 24 h at 37° C.), the “Claudin-1 expression [Claudin-1] +/− SD” value is 0.22 ng/ml +/− 0.006. Besides, the “Effect on TEER / membrane stability” value in assay [11] was “stabilization of the membrane of epithelial cells LLC-PK1 is already achieved”.
lecithin [reference compound] showed a TEER in assay [1] (TR146, 0.1% lecithin over night) of 225 Ohm. Further, the TEER value in [5] (TR146, 0.1% lecithin (positive control)) is recorded as 225 Ohm.

The values are drawn from patent publication US20180353505A1, “COMPATIBLE SOLUTE OR SOLUTE MIXTURE FOR USE IN THE PREVENTION OR TREATMENT OF DISEASES HAVING BARRIER DEFECTS IN EPITHELIAL TISSUES” (bitop AG, priority 2015, published 2018).
